Measurements reported in US11491155B2, “Salt of a pyrimido[6,1-A]isoquinolin-4-one compound” (VERONA PHARMA PLC, priority 2015, dated 2022).

Test: Solubility of RPL554 salts in saline solutions, water and aqueous buffer solutions at 25° C. (HPLC)
Type: physicochemical
Details: 24 hours
Procedure: The behaviour of salts of RPL554 were examined under the following conditions: • Phosphate buffered to pH 3.5 in saline, 0.9% w/w at 25° C. • Acetate buffered to pH 4.5 in saline, 0.9% w/w at 25° C. • Citro-Phosphate buffered to pH 4.5 in saline, 0.9% w/w at 25° C. • Phosphate buffered to pH 6.5 in saline, 0.9% w/w at 25° C. • Saline, 0.7, 0.9 and 1.1% w/w at 25° C. • Deionised water at 25° C.
RPL554 salts and RPL554, ca 50 mg, were suspended in the various aqueous media, 1 ml, with agitation at the specified temperatures for 24 hours. The solids were isolated and dried in vacuo at 45° C. The retained filtrates were examined by HPLC.
Additional RPL554 methane sulfonate salt, ca 50 mg, was charged to the water mixtures at 25° C. and 37.5° C. in order to afford a suspension. In all other cases, suspensions were obtained.
The solubility of the RPL554 was determined by HPLC using a single point calibration and is expressed as RPL554 and not as the salt and are detailed in Table 6 and Table 7 for the various conditions utilised.

In the case of `COc1cc2c(cc1OC)-c1c/c(=N\c3c(C)cc(C)cc3C)n(CCNC(N)=O)c(=O)n1CC2` [Naphthalene-2-sulfonate], the “Solubility as RPL554 (mg/ml) in 0.7 w/w % Saline” value is reported as 0.17 mg/mL, the “Solubility as RPL554 (mg/ml) in 0.9 w/w % Saline” value is reported as 0.09 mg/mL and the “Solubility as RPL554 (mg/ml) in 1.1 w/w % Saline” value is reported as 0.09 mg/mL. For the same molecule, the “Solubility as RPL554 (mg/ml) in Water” value (deionised water) was 0.13 mg/mL.
